pIC50: −log10 of the molar value.
What was measured:
[1] = biological target: T1, GST-RIPK2 fusion protein (human RIPK2, amino acids 1-310) (Homo sapiens, UniProt O43353); test: RIPK2 binding competition assay (TR-FRET, Tracer 199 displacement); details: 10 nM Tracer 199, 1 nM GST-RIPK2, read-out: RIPK2 IC50
T1 construct: made in house; host or cells: baculovirus infected Sf9 cells
Method in brief: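 IC50 derived from the TR-FRET emission ratio (665/620 nm, 337 nm excitation), normalized with no-inhibitor and no-enzyme controls. Incubation 45 min at 22 °C, pH 7.5 Tris buffer, with final 10 nM tracer, 1 nM Sf9-expressed GST-RIPK2 fragment (aa 1-310) and 0.5 nM Tb-labelled anti-GST.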

[2] = biological target: T2, binding of His-XIAP(BIR2)-avi fusion protein to GST-RIPK2 fusion protein (RIPK2/XIAP) (Homo sapiens, UniProt O43353); test: RIPK2-XIAP binding competition PPI assay (TR-FRET); details: RIPK2/XIAP binding competition PPI assay; for Emax: Amax, read-out: PPI Amax bin; for pIC50: read-out: PPI IC50 bin
T2 construct: made in house; host or cells: baculovirus infected Sf9 cells
T2 sequence (O43353 1-310 limits assumed): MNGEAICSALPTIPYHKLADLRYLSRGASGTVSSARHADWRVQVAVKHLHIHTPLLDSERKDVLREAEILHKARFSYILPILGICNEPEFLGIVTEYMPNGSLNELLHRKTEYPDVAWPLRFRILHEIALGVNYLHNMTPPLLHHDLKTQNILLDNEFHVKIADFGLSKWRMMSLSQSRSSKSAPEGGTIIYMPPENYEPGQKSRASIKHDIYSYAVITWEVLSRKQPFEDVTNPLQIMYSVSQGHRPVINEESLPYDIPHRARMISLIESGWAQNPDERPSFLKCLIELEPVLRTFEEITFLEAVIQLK
Method in brief: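 Compounds (in DMSO, 100-fold stock) incubated 120 min at 23 °C with 1 nM GST-RIPK2 (aa 1-310) and 25 nM His-XIAP(BIR2 aa 152-231)-avi, plus anti-His-XL665 and anti-GST-Tb, in pH 7.5 Tris buffer. Read-out: 665/520 nm emission ratio. Normalized to no-inhibitor (0%) and 50 nM GSK583 (−100%); Amax binned A–D.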

[3] = tested on: NF-κB pathway (SEAP) in THP1-Dual cells; test: THP-1 Dual cell SEAP assay (L18-MDP stimulated); assay type: cell-based; details: Homo sapiens, THP1-Dual, read-out: NF-κB THP1 IC50 bin
Method in brief: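 IC50 values derive from non-linear regression of % inhibition, calculated against DMSO/L18-MDP-treated wells after media-only subtraction. NF-κB SEAP activity was read at OD 620-655 nm (QUANTI-Blue, 2 h, 37 °C) from supernatants of THP1-Dual cells. Cells had been compound-treated 30 min before overnight (20-24 h) stimulation with 10 ng/mL final L18-MDP.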

T1 sequence (O43353 1-310): as the sequence (O43353 1-310 limits assumed) above

CN(C)C(=O)c1cc2ncc(-c3cc(F)c(N)nc3F)n2cc1S(=O)(=O)C(C)(C)C [Example 42, 3-(6-amino-2,5-difluoropyridin-3-yl)-6-(tert-butylsulfonyl)-N,N-dimethylimidazo[1,2-a]pyridine-7-carboxamide]
pIC50 [1]: < 7.70 | Emax [2]: 55 to 80% | pIC50 [2]: < 7.70 | pIC50 [3]: < 6.00

CC(C)(C)S(=O)(=O)c1cn2c(-c3cc(F)c(N)nc3F)cnc2cc1OC1CCN(CCO)C1 (stereo not shown) [Example 43, 2-(3-((3-(6-amino-2,5-difluoropyridin-3-yl)-6-(tert-butylsulfonyl)imidazo[1,2-a]pyridin-7-yl)oxy)pyrrolidin-1-yl)ethan-1-ol]
pIC50 [1]: 7.70 to 8.60 | Emax [2]: > 80% | pIC50 [2]: 7.70 to 8.60 | pIC50 [3]: < 6.00

CC(C)(C)S(=O)(=O)c1cn2c(-c3cc(F)c(N)nc3F)cnc2cc1C(=O)NCCO [Example 44, 3-(6-amino-2,5-difluoropyridin-3-yl)-6-(tert-butylsulfonyl)-N-(2-hydroxyethyl)imidazo[1,2-a]pyridine-7-carboxamide]
pIC50 [1]: < 7.70 | Emax [2]: > 80% | pIC50 [2]: < 7.70 | pIC50 [3]: < 6.00

C[C@H](O)COc1cn2ncc(-c3cc(F)c(N)nc3F)c2cc1S(=O)(=O)C(C)(C)C [Example 45, (S)-1-((3-(6-amino-2,5-difluoropyridin-3-yl)-5-(tert-butylsulfonyl)pyrazolo[1,5-a]pyridin-6-yl)oxy)propan-2-ol]
pIC50 [1]: 8.60 to 9.00 | Emax [2]: > 80% | pIC50 [2]: 8.60 to 9.00 | pIC50 [3]: 6.60 to 7.30

C[C@H](O)COc1cn2ncc(-c3cc(Cl)c(N)nc3F)c2cc1S(=O)(=O)C(C)(C)C [Example 46, (S)-1-((3-(6-amino-5-chloro-2-fluoropyridin-3-yl)-5-(tert-butylsulfonyl)pyrazolo[1,5-a]pyridin-6-yl)oxy)propan-2-ol]
pIC50 [1]: 8.60 to 9.00 | Emax [2]: > 80% | pIC50 [2]: 8.60 to 9.00 | pIC50 [3]: 6.60 to 7.30

CC(C)(CO)COc1cc2ncc(-c3cc(F)c(N)nc3F)n2cc1S(=O)(=O)C(C)(C)C [Example 47, 3-((3-(6-amino-2,5-difluoropyridin-3-yl)-6-(tert-butylsulfonyl)imidazo[1,2-a]pyridin-7-yl)oxy)-2,2-dimethylpropan-1-ol]
pIC50 [1]: 8.60 to 9.00 | Emax [2]: > 80% | pIC50 [2]: 8.60 to 9.00 | pIC50 [3]: 6.60 to 7.30

CCC(CO)COc1cc2ncc(-c3cc(F)c(N)nc3F)n2cc1S(=O)(=O)C(C)(C)C (stereo not shown) [Example 48, 2-(((3-(6-amino-2,5-difluoropyridin-3-yl)-6-(tert-butylsulfonyl)imidazo[1,2-a]pyridin-7-yl)oxy)methyl)butan-1-ol]
pIC50 [1]: 8.60 to 9.00 | Emax [2]: > 80% | pIC50 [2]: 7.70 to 8.60 | pIC50 [3]: 6.60 to 7.30

CC(C)(C)S(=O)(=O)c1cn2c(-c3cc(F)c(N)nc3F)cnc2cc1OCC1(CO)COC1 [Example 49, (3-(((3-(6-amino-2,5-difluoropyridin-3-yl)-6-(tert-butylsulfonyl)imidazo[1,2-a]pyridin-7-yl)oxy)methyl)oxetan-3-yl)methanol]
pIC50 [1]: 7.70 to 8.60 | Emax [2]: > 80% | pIC50 [2]: 7.70 to 8.60 | pIC50 [3]: 6.00 to 6.60

Cc1c(-c2cnc3cc(OCCO)c(S(=O)(=O)C(C)(C)C)cn23)cnc(N)c1F [Example 50, 2-((3-(6-amino-5-fluoro-4-methylpyridin-3-yl)-6-(tert-butylsulfonyl)imidazo[1,2-a]pyridin-7-yl)oxy)ethan-1-ol]
pIC50 [1]: < 7.70 | Emax [2]: 55 to 80% | pIC50 [2]: < 7.70 | pIC50 [3]: < 6.00

Cc1nc(N)c(F)cc1-c1cnc2cc(OCCO)c(S(=O)(=O)C(C)(C)C)cn12 [Example 51, 2-((3-(6-amino-5-fluoro-2-methylpyridin-3-yl)-6-(tert-butylsulfonyl)imidazo[1,2-a]pyridin-7-yl)oxy)ethan-1-ol]
pIC50 [1]: < 7.70 | Emax [2]: < 30% | pIC50 [2]: < 7.70 | pIC50 [3]: < 6.00
